This is an account of results in article PMC11267547, “Advancing drug discovery through assay development: a survey of tool compounds within the human solute carrier superfamily” (Frontiers in Pharmacology, 2024).

Molecules are shown by their SMILES. Like-named read-outs stand apart in the source and are kept apart here. Some results are limits rather than exact numbers.

Type in all cases: cell-based
In one experiment the target is T1, SLC13A3 (Homo sapiens, UniProt Q8WWT9).
T1 construct: expressed in transfected cells; host or cells: Jump In T-REx HEK293 (general cell-line paragraph)
T1 sequence (Q8WWT9 1-602): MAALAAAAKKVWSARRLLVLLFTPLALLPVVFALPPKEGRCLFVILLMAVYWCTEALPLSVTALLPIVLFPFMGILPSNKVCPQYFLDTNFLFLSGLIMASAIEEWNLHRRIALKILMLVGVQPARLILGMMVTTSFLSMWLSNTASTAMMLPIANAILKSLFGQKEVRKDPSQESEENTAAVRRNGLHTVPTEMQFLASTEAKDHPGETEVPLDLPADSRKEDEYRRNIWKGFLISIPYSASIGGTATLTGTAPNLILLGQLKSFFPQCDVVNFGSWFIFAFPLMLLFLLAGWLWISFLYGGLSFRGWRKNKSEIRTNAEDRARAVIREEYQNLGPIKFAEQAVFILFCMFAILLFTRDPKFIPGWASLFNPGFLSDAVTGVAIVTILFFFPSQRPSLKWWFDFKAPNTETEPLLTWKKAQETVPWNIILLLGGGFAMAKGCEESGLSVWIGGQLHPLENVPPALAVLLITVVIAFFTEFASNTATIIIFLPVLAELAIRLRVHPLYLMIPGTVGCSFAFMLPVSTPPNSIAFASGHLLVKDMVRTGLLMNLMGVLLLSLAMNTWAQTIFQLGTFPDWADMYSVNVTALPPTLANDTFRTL
The experiment can be described thus: RESOLUTE assay on SLC13A3. The procedure: (§1) FLIPR Membrane Potential Blue Dye was used to detect the compound activities for those membrane transporters that are electrogenic or whose activity is associated with changes in membrane potential, as previously described ([Jensen and BräunerOsborne, 2004]). In brief, cells are seeded at cell line-specific density in black clear-bottom poly-D-Lysine-coated 384-well plates (Greiner Bio-One) in DMEM high-glucose medium with 10% FBS, 1% P/S, and 2 mM UltraGlutamine I (25 µL/well). Furthermore, 24 h after seeding, the culture medium is removed, and the cells are loaded with 20 µL/well of 0.5 X FMP Blue Dye in assay buffer (modified Tyrode’s buffer, 130 mM NaCl, 5 mM KCl, 1 mM MgCl2, 2 mM CaCl2, 5 mM NaHCO3, and 20 mM HEPES pH 7.4). The plates are subsequently incubated for at least 30 min at room temperature in the dark. Then, 10 µL/well of test compounds and controls is added at defined concentrations (0.5% DMSO final conc.) in the FLIPR TETRA instrument (Molecular Devices), and emitted fluorescence is recorded using a λexc 510–545-nm/λem 565–625-nm filter. The dose–response curves for the 19 compounds were prepared starting from 3 µM (final top concentration), the half-log serial dilution factor. For data analysis, Genedata Screener 19.0 software was used.
(§2) The robust Z prime factor (RZ’ factor) was calculated with the following formula: RZ^′=1−3∗RSDMAX+RSDMIN/AbsMAX − MIN, where the RZ’ factor is based on the same formula as the Z′ factor ([Zhang et al., 1999]) but standard deviations and means are replaced by the robust standard deviations and medians, respectively. Curve fitting profiles were performed on each dose–response curve with the analyzer module of Genedata Screener 19.0 on % activity.

The target in another experiment is T2, SLC6A12 (Homo sapiens, UniProt P48065).
T2 construct: expressed in transfected cells; host or cells: Jump In T-REx HEK293
T2 sequence (P48065 1-614): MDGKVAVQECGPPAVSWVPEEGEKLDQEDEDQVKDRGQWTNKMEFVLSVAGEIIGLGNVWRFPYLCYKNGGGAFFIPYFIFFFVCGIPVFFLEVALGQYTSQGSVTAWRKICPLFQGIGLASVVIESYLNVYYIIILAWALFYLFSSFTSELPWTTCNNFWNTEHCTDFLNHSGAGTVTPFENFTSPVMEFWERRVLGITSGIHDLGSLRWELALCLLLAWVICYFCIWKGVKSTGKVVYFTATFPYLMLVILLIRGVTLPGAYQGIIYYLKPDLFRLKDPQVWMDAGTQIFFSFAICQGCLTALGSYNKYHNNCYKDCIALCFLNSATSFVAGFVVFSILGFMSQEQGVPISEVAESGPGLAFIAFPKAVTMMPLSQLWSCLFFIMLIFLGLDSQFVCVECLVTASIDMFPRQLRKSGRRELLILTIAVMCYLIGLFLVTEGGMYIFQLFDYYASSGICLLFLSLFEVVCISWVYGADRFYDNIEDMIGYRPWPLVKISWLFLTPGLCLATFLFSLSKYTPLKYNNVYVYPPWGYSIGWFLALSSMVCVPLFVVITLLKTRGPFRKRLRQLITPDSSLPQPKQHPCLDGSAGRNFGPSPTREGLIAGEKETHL
Put plainly: Membrane potential dye-based assay, HEK293–JumpIn–SLC6A12 cells. The procedure:
as §1, §2

For another experiment, the target named is SLC6A2 (Homo sapiens, UniProt P23975). Put plainly: Impedance-based TRACT assay, HEK293–JumpIn–NET (SLC6A2) cells. Also on record: expressed in transfected cells; host or cells: Jump In T-REx HEK293.
Setting [1] is: Flipr Membrane Potential-Blue-Dye, read-out: pIC50 (act), SLC13A3 (converted).
Setting [2] is: target SLC6A12, Flipr Membrane Potential-Blue-Dye, read-out: pIC50 (act) (converted).
Setting [3] is: target SLC6A2, assay TRACT, read-out: pIC50 (act) (converted).

Sequence of SLC6A2 (P23975 whole entry): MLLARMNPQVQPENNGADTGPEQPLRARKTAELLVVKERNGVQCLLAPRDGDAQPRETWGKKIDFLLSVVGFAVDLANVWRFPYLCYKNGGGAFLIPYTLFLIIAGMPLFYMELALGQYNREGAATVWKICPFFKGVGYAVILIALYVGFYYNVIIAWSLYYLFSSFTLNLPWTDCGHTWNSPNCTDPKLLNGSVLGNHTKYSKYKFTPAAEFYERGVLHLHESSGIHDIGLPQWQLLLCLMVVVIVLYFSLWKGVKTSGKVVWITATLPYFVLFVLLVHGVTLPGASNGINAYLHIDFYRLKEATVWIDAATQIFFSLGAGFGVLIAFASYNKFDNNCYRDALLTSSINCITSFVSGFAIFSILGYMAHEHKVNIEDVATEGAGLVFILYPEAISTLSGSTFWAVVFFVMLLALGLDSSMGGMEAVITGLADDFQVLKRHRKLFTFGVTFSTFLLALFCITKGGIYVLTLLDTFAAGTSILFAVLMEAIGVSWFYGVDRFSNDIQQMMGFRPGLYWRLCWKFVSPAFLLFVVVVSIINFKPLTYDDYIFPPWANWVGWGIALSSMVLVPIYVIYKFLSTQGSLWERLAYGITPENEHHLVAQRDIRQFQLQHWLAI
Procedure for SLC6A2: In brief, HEK293–JumpIn–NET (SLC6A2) or HEK293–JumpIn–CNT2 (SLC28A2) cells were seeded (60.000 cells/well) on an E-plate with 1 μg/mL doxycycline, and cell growth was monitored for 22 h using the xCELLigence real-time cell analyzer (RTCA) SP or MP system. […] Immediately after stimulation, changes in cellular response were monitored every 15 s for a total of 30 min.

`Cc1c(NC(=O)c2cc(C(N)=O)nc3cc(F)ccc23)c(C(F)(F)F)nn1Cc1ccc(C#N)cc1` [BAY-876]: the IC50 at SLC13A3 (setting [1]) and on SLC6A12 (setting [2]) was more than 3.16 µM each time.
Consider `CN1C2CCC1CC(OC(c1ccccc1)c1ccccc1)C2` (centres unmarked) [Benzotropine], for which the IC50 on SLC13A3 (setting [1]) and on SLC6A12 (setting [2]) was more than 3.16 µM in each case.
Consider `CCNC(=O)/C=C/c1cccc(Br)c1` [Cinromide], for which the IC50 on SLC13A3 (setting [1]) is more than 3.16 µM; at SLC6A2 (setting [3]) it was more than 10 µM; on SLC6A12 (setting [2]), more than 3.16 µM.
`O=S(=O)(O)c1cc(N=C=S)ccc1/C=C/c1ccc(N=C=S)cc1S(=O)(=O)O` [DIDS]: the results for the IC50 at SLC13A3 (setting [1]), at SLC6A2 (setting [3]) and on SLC6A12 (setting [2]) were more than 3.16 µM, more than 10 µM and more than 3.16 µM, respectively.
The term inhibition denotes the change of the read-out against control, counted positive when it falls. For `COCCOc1cc(CC2CCN(CCc3ccc4c(c3)C(=O)CCO4)CC2)ccc1Br` [DSP-1053], the IC50 at SLC13A3 (setting [1]) is more than 3.16 µM; at SLC6A2 (setting [3]), more than 10 µM; at SLC6A12 (setting [2]), more than 3.16 µM. For the same compound, the inhibition at 3 µM on SLC6A12 (read-out: Inhibition (3 µM) [%], SLC6A12, MP dye) was determined as 36%.
Take `CNCCCN1c2ccccc2CCc2ccccc21` [Desipramine]: the IC50 at SLC13A3 (setting [1]) and at SLC6A12 (setting [2]) was more than 3.16 µM throughout.
As for `CC(C)[C@H]1CN[C@H](C(=O)O)[C@H]1CC(=O)O` [Dihydrokainate], the IC50 at SLC13A3 (setting [1]) is more than 3.16 µM; at SLC6A2 (setting [3]), more than 10 µM; on SLC6A12 (setting [2]), more than 3.16 µM.
As to `N#Cc1ccc(Nc2cnccc2SCc2ccccc2C(=O)O)c2ccccc12` [KPH2f], the IC50 at SLC13A3 (setting [1]) is more than 3.16 µM; on SLC6A2 (approximate value stated in text, read-out: IC50, SLC6A2) it was approximately 1 µM; on SLC6A12 (setting [2]), more than 3.16 µM.
As to `C=C(C)[C@H]1CN[C@H](C(=O)O)[C@H]1CC(=O)O` [Kainic acid], the IC50 on SLC13A3 is more than 3.16 µM; against SLC6A2, more than 10 µM; against SLC6A12 it was more than 3.16 µM.
As for `CCOC(=O)N1CCC(=C2c3ccc(Cl)cc3CCc3cccnc32)CC1` [Loratadine], the IC50 on SLC13A3 (setting [1]) and on SLC6A12 (setting [2]) was more than 3.16 µM throughout.
With `Nc1nc2ccc(OC(F)(F)F)cc2s1` [Riluzole], the values for the IC50 at SLC13A3 (setting [1]), on SLC6A2 (setting [3]) and on SLC6A12 (setting [2]) were more than 3.16 µM, more than 10 µM and more than 3.16 µM, respectively.
As to `N[C@H](C(=O)O)[C@H](OCc1cccc(NC(=O)c2ccc(C(F)(F)F)cc2)c1)C(=O)O` [TFB-TBOA], the IC50 is more than 3.16 µM at SLC13A3 (setting [1]), more than 10 µM at SLC6A2 (setting [3]) and more than 3.16 µM at SLC6A12 (setting [2]).
As for `NC(C(=O)O)C(OCc1ccccc1)C(=O)O` (stereo not drawn) [Threo-beta-benzyloxyaspartic acid, Threo-beta-Benzyloxyaspartic acid], the IC50 at SLC13A3 (setting [1]) was more than 3.16 µM; at SLC6A2 (setting [3]), more than 10 µM; on SLC6A12 (setting [2]), more than 3.16 µM.
`Cc1ccsc1C(=CCCN1CCC[C@@H](C(=O)O)C1)c1sccc1C` [Tiagabine]: the IC50 was more than 3.16 µM at SLC13A3 (setting [1]), more than 10 µM on SLC6A2 (setting [3]) and more than 3.16 µM at SLC6A12 (setting [2]).
For `COc1ccc(C2C(C#N)=C(N)OC3=C2C(=O)CC(c2cccc4ccccc24)C3)cc1` (centres unmarked) [UCPH-101], the IC50 is more than 3.16 µM on SLC13A3 (setting [1]), more than 10 µM at SLC6A2 (setting [3]) and more than 3.16 µM at SLC6A12 (setting [2]).
As to `CC1C(C#N)=C(N)OC2=C1C(=O)CC(c1cccc3ccccc13)C2` (centres unmarked) [UCPH-102], the IC50 is more than 3.16 µM on SLC13A3 (setting [1]), more than 10 µM on SLC6A2 (setting [3]) and more than 3.16 µM on SLC6A12 (setting [2]).
Consider `Fc1ccc(C(OCCN2CCN(CCCc3ccccc3)CC2)c2ccc(F)cc2)cc1` [Vanoxerine (GBR12909), Vanoxerine], for which the IC50 at SLC13A3 (setting [1]) and on SLC6A12 (setting [2]) was more than 3.16 µM throughout.
Take `N[C@@H](CC(=O)Nc1ccc(Oc2cc(F)c(F)cc2Br)cc1)C(=O)O` [WAY-213613]: the IC50 was more than 3.16 µM at SLC13A3 (setting [1]); 1 µM on SLC6A2 (dox-induced HEK293–JumpIn–SLC6A2 cells, 1 µM norepinephrine, read-out: pIC50, SLC6A2, TRACT (converted)); more than 3.16 µM at SLC6A12 (setting [2]).
